These results are taken from the NIST ThermoML archive (doi:10.1021/acs.jced.9b00286).

For this data set the following is noted: Crystal; DSC.

Numbers after ± are expanded uncertainties.

Take `OCc1ccc(O[C@@H]2O[C@H](CO)[C@@H](O)[C@H](O)[C@H]2O)cc1` [gastrodin]: the Triple point temperature amounted to 429.75 ± 1.2 K.
